Where a SMILES comes first, the peptide text is derived from it. [ ]: non-standard residue; d: D form. The star is where a group is joined. NHCH2CH2OH = OCCN*; For = O=C*
What was measured:
[1] = tested on: Streptococcus pyogenes SSI-9; test: Antibacterial activity assay of bead-derived peptides (three concentrations); assay type: cell-based; design: key: +++: inhibition by the 640-fold diluted peptide solution; ++: inhibition by the 160-fold diluted solution; +: inhibition by the 40-fold diluted solution; -: no inhibition; conditions: S. pyogenes, bead-derived peptide solution, three concentrations
In short: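 Undiluted, 4-fold and 16-fold DMSO-diluted peptide stocks; S. pyogenes SSI-9, 2 × 10^5 CFU, cation-adjusted MHB (50 mg/L Ca2+, 25 mg/L Mg2+) + 5% laked horse blood; 37 °C, 18 h; readout = cell pellet visible or not.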

[2] = cell viability/%
In short: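 P388 cells at 1 × 10^4 cells/mL (final) were exposed to library peptides (stocks diluted 250-fold in RPMI1640/10% FBS) for 92 h at 37 °C, 5% CO2. Viable cells were counted by WST-1/1-methoxy PMS (4 h), absorbance 415 nm, and expressed as cell viability (%).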

[3] = H+/Na+ transport assay of bead-derived peptides (one-point); assay type: biochemical; design: key: relative activity; mean of two control wells = 1.00; conditions: bead-derived peptide solution, EYPC/EYPG LUVs;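 note: relative to parent gramicidin A activity set to 1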
In short: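 Miniaturized 96-well format. LUVs with entrapped pyranine (1.0 mM) were exposed to peptide for 30 min at RT. Intensities were expressed relative to full lysis by Triton X-100 and no treatment, with control-well mean = 1.00.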

Which antibacterial activity [1] does the source give for CC(C)C[C@@H](NC(=O)[C@H](C)NC(=O)CNC(=O)[C@@H](NC=O)C(C)C)C(=O)N[C@@H](C)C(=O)N[C@H](CC(C)C)C(=O)N[C@H](C(=O)N[C@@H](C(=O)N[C@@H](Cc1c[nH]c2ccccc12)C(=O)N[C@H](CC(C)C)C(=O)N[C@@H](Cc1c[nH]c2ccccc12)C(=O)N[C@@H](C(=O)N[C@@H](Cc1c[nH]c2ccccc12)C(=O)N[C@H](CC(C)C)C(=O)N[C@@H](Cc1c[nH]c2ccccc12)C(=O)NCCO)[C@H](C)O)[C@H](C)O)C(C)C [compound 1176] (For-VGA[dL]A[dL]V[dT]W[dL]W[dT]W[dL]W-NHCH2CH2OH) here?
Its antibacterial activity is “-”.

And the viability [2]?
The viability was 100%.

What about the “H+/Na+ transport activity normalized against the value of 1 (1.00)” value (shortened to “H+/Na+ transport activity normalized”) [3] of the same compound?
Its value is 1.01.

With CC(C)C[C@@H](NC(=O)[C@@H](NC(=O)[C@H](NC(=O)[C@H](C)NC(=O)[C@H](NC(=O)[C@H](C)NC(=O)CNC(=O)[C@@H](NC=O)C(C)C)[C@H](C)O)C(C)C)C(C)C)C(=O)N[C@@H](Cc1c[nH]c2ccccc12)C(=O)N[C@@H](C(=O)N[C@@H](Cc1c[nH]c2ccccc12)C(=O)N[C@@H](C(=O)N[C@@H](Cc1c[nH]c2ccccc12)C(=O)N[C@@H](C(=O)N[C@@H](Cc1c[nH]c2ccccc12)C(=O)NCCO)C(C)C)C(C)C)C(C)C [compound 3019] (For-VGA[dT]A[dV]V[dL]W[dV]W[dV]W[dV]W-NHCH2CH2OH) as the compound, how does the antibacterial activity [1] read?
Its antibacterial activity is “-”.

And the viability [2]?
The viability was 100%.

And the “H+/Na+ transport activity normalized” value [3]?
The value was 1.12.

What does the source list for CNC(=O)C[C@@H](NC(=O)[C@@H](NC(=O)[C@H](NC(=O)[C@H](C)NC(=O)[C@H](NC(=O)[C@H](C)NC(=O)CNC(=O)[C@@H](NC=O)C(C)C)C(C)C)C(C)C)C(C)C)C(=O)N[C@@H](Cc1c[nH]c2ccccc12)C(=O)N[C@@H](C(=O)N[C@@H](Cc1c[nH]c2ccccc12)C(=O)N[C@H](CC(C)C)C(=O)N[C@@H](Cc1c[nH]c2ccccc12)C(=O)N[C@H](CC(C)C)C(=O)N[C@@H](Cc1c[nH]c2ccccc12)C(=O)NCCO)C(C)C [compound 903] (For-VGA[dV]A[dV]V[dD](NHMe)W[dV]W[dL]W[dL]W-NHCH2CH2OH)?
antibacterial activity [1]: -; viability [2]: 89.7%; H+/Na+ transport activity normalized against the value of 1 (1.00) [3]: 1.15

With CC(C)C[C@@H](NC(=O)[C@H](C)NC(=O)CNC(=O)[C@@H](NC=O)C(C)C)C(=O)N[C@@H](C)C(=O)N[C@@H](C(=O)N[C@H](C(=O)N[C@H](CC(C)C)C(=O)N[C@@H](Cc1c[nH]c2ccccc12)C(=O)N[C@H](CC(C)C)C(=O)N[C@@H](Cc1c[nH]c2ccccc12)C(=O)N[C@H](CC(C)C)C(=O)N[C@@H](Cc1c[nH]c2ccccc12)C(=O)N[C@@H](C(=O)N[C@@H](Cc1c[nH]c2ccccc12)C(=O)NCCO)[C@H](C)O)C(C)C)C(C)C [compound 1975] (For-VGA[dL]A[dV]V[dL]W[dL]W[dL]W[dT]W-NHCH2CH2OH) as the compound, how does the antibacterial activity [1] read?
Its antibacterial activity is “+”.

And the viability [2]?
The viability was 100%.

And the “H+/Na+ transport activity normalized” value [3]?
Its value is 1.04.

For CC(C)C[C@@H](NC(=O)[C@H](C)NC(=O)[C@H](NC(=O)[C@H](C)NC(=O)CNC(=O)[C@@H](NC=O)C(C)C)C(C)C)C(=O)N[C@H](C(=O)N[C@H](CC(C)C)C(=O)N[C@@H](Cc1c[nH]c2ccccc12)C(=O)N[C@H](CC(C)C)C(=O)N[C@@H](Cc1c[nH]c2ccccc12)C(=O)N[C@H](CC(C)C)C(=O)N[C@@H](Cc1c[nH]c2ccccc12)C(=O)N[C@@H](C(=O)N[C@@H](Cc1c[nH]c2ccccc12)C(=O)NCCO)[C@H](C)O)C(C)C [compound 129] (For-VGA[dV]A[dL]V[dL]W[dL]W[dL]W[dT]W-NHCH2CH2OH), which antibacterial activity [1] is on record?
The antibacterial activity was “+”.

And the viability [2]?
Its viability is 100%.

What about the “H+/Na+ transport activity normalized” value [3] of the same compound?
The value was 1.05.

For CC(C)C[C@@H](NC(=O)[C@H](C)NC(=O)CNC(=O)[C@@H](NC=O)C(C)C)C(=O)N[C@@H](C)C(=O)N[C@@H](C(=O)N[C@H](C(=O)N[C@H](CC(C)C)C(=O)N[C@@H](Cc1c[nH]c2ccccc12)C(=O)N[C@H](CC(C)C)C(=O)N[C@@H](Cc1c[nH]c2ccccc12)C(=O)N[C@H](CC(C)C)C(=O)N[C@@H](Cc1c[nH]c2ccccc12)C(=O)N[C@H](CC(C)C)C(=O)N[C@@H](Cc1c[nH]c2ccccc12)C(=O)NCCO)C(C)C)C(C)C [compound 8397] (For-VGA[dL]A[dV]V[dL]W[dL]W[dL]W[dL]W-NHCH2CH2OH), which antibacterial activity [1] is on record?
The antibacterial activity was “+”.

What about the viability [2] of the same compound?
Its viability is 0%.

What about the “H+/Na+ transport activity normalized” value [3] of the same compound?
Its value is 1.12.

Which antibacterial activity [1] does the source give for CC(C)C[C@@H](NC(=O)[C@H](C)NC(=O)CNC(=O)[C@@H](NC=O)C(C)C)C(=O)N[C@@H](C)C(=O)N[C@H](CC(C)C)C(=O)N[C@H](C(=O)N[C@@H](C(=O)N[C@@H](Cc1c[nH]c2ccccc12)C(=O)N[C@@H](C(=O)N[C@@H](Cc1c[nH]c2ccccc12)C(=O)N[C@@H](C(=O)N[C@@H](Cc1c[nH]c2ccccc12)C(=O)N[C@@H](C(=O)N[C@@H](Cc1c[nH]c2ccccc12)C(=O)NCCO)C(C)C)C(C)C)C(C)C)[C@H](C)O)C(C)C [compound 10609] (For-VGA[dL]A[dL]V[dT]W[dV]W[dV]W[dV]W-NHCH2CH2OH) here?
Its antibacterial activity is “-”.

What about the viability [2] of the same compound?
Its viability is 79.4%.

And the “H+/Na+ transport activity normalized” value [3]?
The value was 1.15.

Which results are given for CNC(=O)C[C@@H](NC(=O)[C@H](C)NC(=O)CNC(=O)[C@@H](NC=O)C(C)C)C(=O)N[C@@H](C)C(=O)N[C@H](CC(C)C)C(=O)N[C@H](C(=O)N[C@@H](C(=O)N[C@@H](Cc1c[nH]c2ccccc12)C(=O)N[C@H](CC(C)C)C(=O)N[C@@H](Cc1c[nH]c2ccccc12)C(=O)N[C@H](CC(C)C)C(=O)N[C@@H](Cc1c[nH]c2ccccc12)C(=O)N[C@H](CC(C)C)C(=O)N[C@@H](Cc1c[nH]c2ccccc12)C(=O)NCCO)C(C)C)C(C)C [compound 8038] (For-VGA[dD](NHMe)A[dL]V[dV]W[dL]W[dL]W[dL]W-NHCH2CH2OH)?
antibacterial activity [1]: -; viability [2]: 100%; H+/Na+ transport activity normalized against the value of 1 (1.00) [3]: 1.04

Which antibacterial activity [1] does the source give for CC(C)C[C@@H](NC(=O)[C@H](C)NC(=O)CNC(=O)[C@@H](NC=O)C(C)C)C(=O)N[C@@H](C)C(=O)N[C@@H](C(=O)N[C@H](C(=O)N[C@@H](C(=O)N[C@@H](Cc1c[nH]c2ccccc12)C(=O)N[C@H](CC(C)C)C(=O)N[C@@H](Cc1c[nH]c2ccccc12)C(=O)N[C@@H](C(=O)N[C@@H](Cc1c[nH]c2ccccc12)C(=O)N[C@@H](C(=O)N[C@@H](Cc1c[nH]c2ccccc12)C(=O)NCCO)[C@H](C)O)C(C)C)C(C)C)C(C)C)C(C)C [compound 7010] (For-VGA[dL]A[dV]V[dV]W[dL]W[dV]W[dT]W-NHCH2CH2OH) here?
Its antibacterial activity is “+”.

And the viability [2]?
The viability was 100%.

What about the “H+/Na+ transport activity normalized” value [3] of the same compound?
The value was 1.07.

Which antibacterial activity [1] does the source give for CNC(=O)C[C@@H](NC(=O)[C@H](C)NC(=O)[C@@H](CC(C)C)NC(=O)[C@H](C)NC(=O)CNC(=O)[C@@H](NC=O)C(C)C)C(=O)N[C@H](C(=O)N[C@H](CC(C)C)C(=O)N[C@@H](Cc1c[nH]c2ccccc12)C(=O)N[C@H](CC(C)C)C(=O)N[C@@H](Cc1c[nH]c2ccccc12)C(=O)N[C@@H](C(=O)N[C@@H](Cc1c[nH]c2ccccc12)C(=O)N[C@@H](C(=O)N[C@@H](Cc1c[nH]c2ccccc12)C(=O)NCCO)C(C)C)C(C)C)C(C)C [compound 7119] (For-VGA[dL]A[dD](NHMe)V[dL]W[dL]W[dV]W[dV]W-NHCH2CH2OH) here?
The antibacterial activity was “-”.

What about the viability [2] of the same compound?
Its viability is 100%.

And the “H+/Na+ transport activity normalized” value [3]?
The value was 1.15.

With CNC(=O)C[C@@H](NC(=O)[C@H](C)NC(=O)[C@H](NC(=O)[C@H](C)NC(=O)CNC(=O)[C@@H](NC=O)C(C)C)C(C)C)C(=O)N[C@H](C(=O)N[C@H](CC(C)C)C(=O)N[C@@H](Cc1c[nH]c2ccccc12)C(=O)N[C@H](CC(C)C)C(=O)N[C@@H](Cc1c[nH]c2ccccc12)C(=O)N[C@@H](C(=O)N[C@@H](Cc1c[nH]c2ccccc12)C(=O)N[C@H](CC(C)C)C(=O)N[C@@H](Cc1c[nH]c2ccccc12)C(=O)NCCO)C(C)C)C(C)C [compound 1489] (For-VGA[dV]A[dD](NHMe)V[dL]W[dL]W[dV]W[dL]W-NHCH2CH2OH) as the compound, how does the antibacterial activity [1] read?
Its antibacterial activity is “-”.

And the viability [2]?
Its viability is 100%.

What about the “H+/Na+ transport activity normalized” value [3] of the same compound?
The value was 1.03.

What does the source list for CC(C)C[C@@H](NC(=O)[C@H](C)NC(=O)[C@H](NC(=O)[C@H](C)NC(=O)CNC(=O)[C@@H](NC=O)C(C)C)C(C)C)C(=O)N[C@H](C(=O)N[C@H](CC(C)C)C(=O)N[C@@H](Cc1c[nH]c2ccccc12)C(=O)N[C@@H](C(=O)N[C@@H](Cc1c[nH]c2ccccc12)C(=O)N[C@H](CC(C)C)C(=O)N[C@@H](Cc1c[nH]c2ccccc12)C(=O)N[C@@H](C(=O)N[C@@H](Cc1c[nH]c2ccccc12)C(=O)NCCO)C(C)C)[C@H](C)O)C(C)C [compound 3260] (For-VGA[dV]A[dL]V[dL]W[dT]W[dL]W[dV]W-NHCH2CH2OH)?
antibacterial activity [1]: +; viability [2]: 100%; H+/Na+ transport activity normalized against the value of 1 (1.00) [3]: 1.10

With CNC(=O)C[C@@H](NC(=O)[C@H](Cc1c[nH]c2ccccc12)NC(=O)[C@H](NC(=O)[C@H](Cc1c[nH]c2ccccc12)NC(=O)[C@H](NC(=O)[C@H](Cc1c[nH]c2ccccc12)NC(=O)[C@H](NC(=O)[C@@H](NC(=O)[C@@H](CC(C)C)NC(=O)[C@H](C)NC(=O)[C@@H](CC(C)C)NC(=O)[C@H](C)NC(=O)CNC(=O)[C@@H](NC=O)C(C)C)C(C)C)C(C)C)C(C)C)C(C)C)C(=O)N[C@@H](Cc1c[nH]c2ccccc12)C(=O)NCCO [compound 10002] (For-VGA[dL]A[dL]V[dV]W[dV]W[dV]W[dD](NHMe)W-NHCH2CH2OH) as the compound, how does the antibacterial activity [1] read?
The antibacterial activity was “-”.

What about the viability [2] of the same compound?
Its viability is 100%.

And the “H+/Na+ transport activity normalized” value [3]?
The value was 1.01.

Reference: paper PMC7531004, “Discovery of gramicidin A analogues with altered activities by multidimensional screening of a one-bead-one-compound library” (Nature Communications, 2020)
